Laboratory results taken from patent publication US20220064141A1, “BENZOPYRIDONE HETEROCYCLIC COMPOUND AND USE THEREOF” (BrightGene Bio-Medical Technology Co., Ltd., priority 2019, published 2022).

Tests used:
[1] = tested on: NCI-H358 human non-small cell lung cancer cell with KRAS G12C mutation; assay: Cell Titer-Glo cell viability, NCI-H358 cells (72 h); type: cell-based; conditions: Homo sapiens, NCI-H358, 72 h, numeric values
Procedure, shortened: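 NCI-H358 (KRAS G12C) cells in DMEM with 10% FBS, seeded and left overnight at 37 °C, then treated 72 h with compound at 30 μM to 0.01 nM final. Viability from ATP content with Cell Titer-Glo after 1-4 h incubation at 37 °C; […].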

[2] = tested on: HCT116 human colon cancer cells with high expression of KRAS G13D; assay: Cell Titer-Glo cell viability, HCT116 cells (72 h); type: cell-based; conditions: HCT-116
Excerpt: (§1) Effect Example 2: Pharmacodynamic Assay 2 (Determination of the efficacy of the compounds of the present disclosure on HCT116 human colon cancer cells with high expression of KRAS G13D and A549 human non-small cell lung cancer cells with high expression of KRAS G12S)
(§2) The following method was used to determine the effects of the compounds of the present disclosure on tumor cell proliferation.
(§3) For KRAS G13D subtype, HCT116 human colon cancer cell was used. For KRAS G12S subtype, A549 human non-small cell lung cancer cell was used. The efficacy of the compounds in inhibiting cancer cell viability was determined. HCT116 cells or A549 cells were cultured in a DMEM medium containing 10% fetal bovine serum, 100 U penicillin and […] streptomycin. The cells were cultured in an incubator with 5% CO2 at 37° C. Cancer cell viability was evaluated by determining the content of ATP with Cell Titer-Glo® kit (Luminescent Cell Viability Assay kit, please refer to the manufacturer's instructions for use) and evaluating the inhibition of cell growth.
(§4) The experimental method was proceeded in accordance with the steps in the instructions for the kit, and was described briefly as follows. The test compounds were first dissolved in DMSO to prepare stock solutions, and then the stock solutions were subjected to gradient dilution with the culture media of the corresponding cells, thereby preparing test samples. The final concentrations of the compounds were in the range of 30 μM to 0.01 nM. Tumor cells in logarithmic growth phase were seeded into a 96-well cell culture plate at an appropriate density. After the cell culture plate was left overnight in an incubator with 5% CO2 at 37° C., the test compound samples were added thereto and then the cells were further cultured for 72 hours. After the incubation was complete, an appropriate volume of Cell Titer-Glo® reagent was added into each well, and the cells were incubated at 37° C. for 1 to 4 hours. Then, the […] was read on a microplate reader. The percentage inhibition rates of the compounds at each concentration point were calculated by comparing the absorbance values of the sample wells with that of the control group (0.3% DMSO), and then non-linear regression analysis of the concentration of the compound vs inhibition rate was performed by using GraphPad Prism 5 software, thereby obtaining IC50 values indicating the inhibitory effects of the compounds on cell proliferation.

[3] = tested on: A549 human non-small cell lung cancer cells with high expression of KRAS G12S; assay: Cell Titer-Glo cell viability, A549 cells (72 h); type: cell-based
Excerpt: as §1, §2, §3, §4

[4] = Safety by body weight change and animal deaths in the MIAPaCa-2 xenograft study; type: in vivo; conditions: for Weight at the Initiation of Administration: baseline
Procedure: Experimental operation: BALB/c nude mice, female, 6- to 8-weeks old, weighing about 17.6 g to 21.1 g. Each mouse was subcutaneously inoculated with 5×10^6 MIAPaCa-2 cells (with Matrigel; the volume ratio was 1:1) in the right flank. The administration was initiated when the average tumor volume reached about 100 cubic millimeters. The test compounds were orally administered daily by intragastric injection (6 mice in each group) for a total of 16 or 23 days. Tumor volumes were measured three times a week. The volume was measured in cubic millimeters and calculated by the following formula: tumor volume (mm^3)=½×(a×b^2) (where a represented the long diameter and b represented the short diameter). The anti-tumor efficacy of the compound was evaluated by TGI (%).The calculation formula was as follows: TGI %=(1−T/C)×100% (T and C were the relative tumor volumes (RTV) of a mouse in the treatment group and a mouse in the control group at a specific time point), respectively. Safety was evaluated according to the changes of the body weight of the animals and animal deaths.

[5] = 30 mg/kg (Day 0 to Day 9) + 15 mg/kg (Day 10 to Day 16)
[6] = 100 mg/kg (Day 0 to Day 9) + 50 mg/kg (Day 10 to Day 16) + 100 mg (Day 17 to Day 23)

C=CC(=O)N1CCN(c2c(C#N)c(=O)n(-c3ccccc3C(C)C)c3cc(-c4c(C)ccc5[nH]ncc45)c(Cl)cc23)[C@@H](C)C1 (single isomer, unassigned) [Compound I-2-2]
IC50 [1]: 50 nM
IC50 [2]: > 3000 nM
IC50 [3]: > 3000 nM
Weight Change Rate (%) [4, 5]: +7.53%
Weight on Day 23 [4, 5]: 21.3 g
Weight Change Rate (%) [4, 6]: +12.32%
Weight on Day 23 [4, 6]: 22.4 g
Weight at the Initiation of Administration [4, 5]: 19.8 g
Weight at the Initiation of Administration [4, 6]: 20.0 g
